Data from patent US7670629B2, “Method of treating bacterial hoof infections of sheep and cattle” (priority 2005, dated 2010).
Where two headings read alike, the source gives them in different places. Marks after values point to notes of the source that are not given here.

Assays:
[1] = test system: Prevotella melaninogenica ATCC No. 25845; settings: for zone of inhibition of Prevotella melaninogenica: disc on BA plate, anaerobic 48 hours, mean of three assays; for zone of inhibition of P. melaninogenica, comparison between minerals: at each of the concentrations (2.5-15%); for zone of inhibition of P. melaninogenica, comparison between minerals / overall antibacterial effect on P. melaninogenica: in words; for overall antibacterial effect on P. melaninogenica: summary
Experimental: (§1) The bacterial strains used for this study were obtained from the American Type Culture Collection (ATCC).
(§2) Dehydrated bacteria were resuspended in 5 mL of Brain Heart Infusion (BHI) broth and incubated anaerobically for 48 hours at 37° C. A total of 20 uL of each resuspended bacterial solution was plated on two 5% Trypticase Sheep Blood Agar (BA) plates and incubated anaerobically for 48 hours at 37° C. to ensure that a pure culture was maintained throughout the resuspension process. Six (6) vials of each bacterium were frozen down from the resuspended broth in a 20% glycerol solution (500 uL bacteria: 500 uL 40% glycerol).
(§3) One vial from the frozen stock of each bacterial strain was grown in 100 mL of Difco Anaerobe Broth MIC. P. melaninogenica was grown anaerobically for 24 hours at 37° C. and F. necrophorum was grown anaerobically for 48 hours at 37° C. After incubation, one hundred (100) 1 mL-vials of each bacterium were frozen down in a 10% glycerol solution.
(§4) Colony forming units/mL (CFU/mL) for each bacterium was determined by thawing 3 vials of each bacteria and making serial 1:10 dilutions out to 10e^−7. Separate serial dilutions were made for each of the three vials. A total of 100 uL of dilutions 10e^−3, 10e^−4, 10e^−5, 10e^−6, and 10e^−7 were plated in duplicate for each vial on BA plates and incubated under the appropriate culture conditions for each. The number of colonies growing on each dilution plate was counted and the CFU/mL for each dilution was determined. The average CFU/mL for each bacterium was calculated and used for all further assays.
(§5) The ZnCl arrived as a 60% solution and was diluted with distilled water to achieve concentrations of 2.5%, 5%, 10%, and 15% by weight. […] All mineral concentrations were filter-sterilized to ensure sterility.
(§6) To determine whether different concentrations of mineral salt solutions can inhibit the growth of an established culture, a separate blank paper disc was infused with each concentration of mineral salt solution and placed onto BA plates that had been swabbed with established cultures of each bacterium. Plates were incubated anaerobically for 48 hours and the zone (in mm) around each disc with no bacterial growth was measured with a caliper. The assay was repeated three times, and the mean zone of inhibition for each mineral concentration was calculated.
(§7) Data were analyzed using the Mixed Model procedure of SAS (PROC MIXED; SAS Stat Inc., Cary, N.C.) to test the effect of different concentrations for each mineral on P. melaninogenica and F. necrophorum. Least square means were calculated and separated using the PDIFF option of SAS. Contrast statements of SAS were used to determine linear and quadratic effects. The plate was used as the experimental unit. An alpha level of 0.05 was used to assess the significance in this experiment.

[2] = test system: Fusobacterium necrophorum ATCC No. 25286; settings: for zone of inhibition of Fusobacterium necrophorum: disc on BA plate, anaerobic 48 hours, mean of three assays; for zone of inhibition of F. necrophorum, comparison between minerals: at each of the concentrations (2.5-15%), P<0.01; for zone of inhibition of F. necrophorum, comparison between minerals / overall antibacterial effect on F. necrophorum: in words; for overall antibacterial effect on F. necrophorum: summary
Experimental: as §1, §2, §3, §4, §5, §6, §7

[3] = 2.5% solution in distilled water
[4] = 10% solution in distilled water
[5] = 15% solution in distilled water

Structure (SMILES) | pH of mineral salt solution [3] | pH of mineral salt solution (5% solution in distilled water) | pH of mineral salt solution [4] | pH of mineral salt solution [5] | zone of inhibition of Prevotella melaninogenica ([1]; 2.5% solution) | zone of inhibition of Prevotella melaninogenica ([1]; 5% solution) | zone of inhibition of Prevotella melaninogenica ([1]; 10% solution) | zone of inhibition of Prevotella melaninogenica ([1]; 15% solution) | zone of inhibition of P. melaninogenica, comparison between minerals [1] | overall antibacterial effect on P. melaninogenica [1] | zone of inhibition of Fusobacterium necrophorum ([2]; 2.5% solution) | zone of inhibition of Fusobacterium necrophorum ([2]; 5% solution) | zone of inhibition of Fusobacterium necrophorum ([2]; 10% solution) | zone of inhibition of Fusobacterium necrophorum ([2]; 15% solution) | zone of inhibition of F. necrophorum, comparison between minerals [2] | overall antibacterial effect on F. necrophorum [2] | pH relative to the other mineral salts (at all of the concentrations, in words)
O=S(=O)([O-])[O-].[Cu+2] [CuSO4, copper sulfate] | 4.34 | 4.13 | 3.94 | 3.81 | 31.0^a mm | 31.7^a mm | 38.2^a mm | 40.7^a mm | not significantly different | greatest antibacterial effect | 36.3^c mm | 40.7^c mm | 46.7^c mm | 52.2^c mm | greatest | greatest antibacterial effect | 
[Cl-].[Cl-].[Zn+2] [ZnCl2, zinc chloride] | 6.02 | 5.78 | 5.43 | 5.21 | 38.9^b mm | 42.5^b mm | 46.6^b mm | 52.0^b mm | significantly greater zone of inhibition | greatest antibacterial effect | 27.6^b mm | 33.9^b mm | 41.3^b mm | 44.2^b mm | intermediate | greatest antibacterial effect | less acidic
O=S(=O)([O-])[O-].[Zn+2] [ZnSO4, zinc sulfate] | 5.06 | 4.75 | 4.34 | 4.16 | 29.3^a mm | 33.5^a mm | 38.6^a mm | 42.9^a mm |  | only slightly less antibacterial activity | 25.0^a mm | 29.5^a mm | 35.8^a mm | 40.4^a mm | smallest | only slightly less antibacterial activity | 
